Data reported in US10568950B1, “Peptides, combination of peptides and scaffolds for use in immunotherapeutic treatment of various cancers” (Immatics Biotechnologies GmbH, priority 2015, dated 2020).

What was measured:
HLA-A*24 = assay: MHC binding assay: UV-ligand exchange, beta2m ELISA (peptide exchange yield); design: species or system human; settings: binding to HLA-A*24, β2m ELISA
From the text: Candidate peptides for T cell based therapies according to the present invention were further tested for their MHC binding capacity (affinity). The individual peptide-MHC complexes were produced by UV-ligand exchange, where a UV-sensitive peptide is cleaved upon UV-irradiation, and exchanged with the peptide of interest as analyzed. Only peptide candidates that can effectively bind and stabilize the peptide-receptive MHC molecules prevent dissociation of the MHC complexes. To determine the yield of the exchange reaction, an ELISA was performed based on the detection of the light chain (β2m) of stabilized MHC complexes. The assay was performed as generally described in Rodenko et al. (Rodenko et al., 2006).
96 well MAXISorp plates (NUNC) were coated over night with 2 ug/ml streptavidin in PBS at room temperature, washed 4× and blocked for 1 h at 37° C. in 2% BSA containing blocking buffer. […] Peptide-MHC monomers of the UV-exchange reaction were diluted 100 fold in blocking buffer. Samples were incubated for 1 h at 37° C., washed four times, incubated with 2 ug/ml HRP conjugated anti-βm for 1 h at 37° C., washed again and detected with TMB solution that is stopped with […]. Absorption was measured at 450 nm. Candidate peptides that show a high exchange yield (preferably higher than 50%, most preferred higher than 75%) are generally preferred for a generation and production of antibodies or fragments thereof, and/or T cell receptors or fragments thereof, as they show sufficient avidity to the MHC molecules and prevent dissociation of the MHC complexes.

[1] = system: CD8+ T cells of healthy HLA-A*24+ donors; assay: In vitro immunogenicity: priming of CD8+ T cells with aAPCs loaded with HLA-A*24/peptide complexes and anti-CD28, multimer staining; assay type: cell-based, human; settings: for Wells positive [%]: in vitro immunogenicity, HLA-A*24 peptides of Table 12B; for wells: in vitro immunogenicity of HLA class I peptides, share of positive wells, peptides of Table 3 (HLA-A*24 binding)
Protocol: CD8+ T cells were primed using artificial APCs coated with anti-CD28 mAb and HLA-A*24 in complex with SEQ ID NO: 99 peptide (FIG. 5A, left panel), SEQ ID NO: 119 peptide (FIG. 5B, left panel), SEQ ID NO: 142 peptide (FIG. 5C, left panel) and SEQ ID NO: 174 peptide (FIG. 5D, left panel), respectively. After three cycles of stimulation, the detection of peptide-reactive cells was performed by 2D multimer staining with A*24/SEQ ID NO: 99 (A), A*24/SEQ ID NO: 119 (B), A*24/SEQ ID NO: 142 (C) or A*24/SEQ ID NO: 174 (D). Right panels (FIGS. 5A, 5B, 5C and 5D) show control staining of cells stimulated with irrelevant A*24/peptide complexes. Viable singlet cells were gated for CD8+ lymphocytes. Boolean gates helped excluding false-positive events detected with multimers specific for different peptides. Frequencies of specific multimer+ cells among CD8+ lymphocytes are indicated.
In order to obtain information regarding the immunogenicity of the TUMAPs of the present invention, the inventors performed investigations using an in vitro T-cell priming assay based on repeated stimulations of CD8+ T cells with artificial antigen presenting cells (aAPCs) loaded with peptide/MHC complexes and anti-CD28 antibody.
PBMCs and isolated CD8+ lymphocytes were incubated in T-cell medium (TCM) until use consisting of RPMI-Glutamax (Invitrogen, Karlsruhe, Germany) supplemented with 10% heat inactivated human AB serum (PAN-Biotech, Aidenbach, Germany), 100 U/ml Penicillin/100 μg/ml Streptomycin (Cambrex, Cologne, Germany), 1 mM sodium pyruvate (CC Pro, Oberdorla, Germany), 20 μg/ml Gentamycin (Cambrex). 2.5 ng/ml IL-7 (PromoCell, Heidelberg, Germany) and 10 U/ml IL-2 (Novartis Pharma, Nurnberg, Germany) were also added to the TCM at this step.
Generation of pMHC/anti-CD28 coated beads, T-cell stimulations and readout was performed in a highly defined in vitro system using four different pMHC molecules per stimulation condition and 8 different pMHC molecules per readout condition.
The purified co-stimulatory mouse IgG2a anti human CD28 Ab 9.3 (Jung et al., 1987) was chemically biotinylated using Sulfo-N-hydroxysuccinimidobiotin as recommended by the manufacturer (Perbio, Bonn, Germany). Beads used were 5.6 μm diameter streptavidin coated polystyrene particles (Bangs Laboratories, Illinois, USA).
800.000 beads/200 μl were coated in 96-well plates in the presence of 4×12.5 ng different biotin-pMHC, washed and 600 ng biotin anti-CD28 were added subsequently in a volume of 200 μl. Stimulations were initiated in 96-well plates by co-incubating […] CD8+ T cells with 2×10^5 washed coated beads in 200 μl TCM supplemented with 5 ng/ml IL-12 (PromoCell) for 3 days at 37° C. Half of the medium was then exchanged by fresh TCM supplemented with 80 U/ml IL-2 and incubating was continued for 4 days at 37° C. This stimulation cycle was performed for a total of three times. For the pMHC multimer readout using 8 different pMHC molecules per condition, a two-dimensional combinatorial coding approach was used as previously described (Andersen et al., 2012) with minor modifications encompassing coupling to 5 different fluorochromes. Finally, multimeric analyses were performed by staining the cells with Live/dead near IR dye (Invitrogen, Karlsruhe, Germany), CD8-FITC antibody clone SKI (BD, Heidelberg, Germany) and fluorescent pMHC multimers. For analysis, a BD LSRII SORP cytometer equipped with appropriate lasers and filters was used. Peptide specific cells were calculated as percentage of total CD8+ cells. Evaluation of multimeric analysis was done using the FlowJo software (Tree Star, Oreg., USA). In vitro priming of specific multimer+ CD8+ lymphocytes was detected by comparing to negative control stimulations.

Peptide exchange (MHC class I binding score, peptide exchange yield) (HLA-A*24) | Substance | Wells positive [%] [1] | wells [1]
++++ (>= 75% = ++++) | 96 (YYTQYSQTI; listed as Homo sapiens) [compound 96] | + (<20% = +) | –
++++ (>= 75% = ++++) | 99 (QYILAVPVL; listed as Homo sapiens) [compound 99] | +++ (50%-69% = +++) | –
++++ (>= 75% = ++++) | 104 (SYLTWHQQI; listed as Homo sapiens) [compound 104] | + (<20% = +) | –
++++ (>= 75% = ++++) | 109 (LFITGGQFF; listed as Homo sapiens) [compound 109] | ++ (20%-49% = ++) | –
++++ (>= 75% = ++++) | 114 (QYLDGTWSL; listed as Homo sapiens) [compound 114] | +++ (50%-69% = +++) | –
++++ (>= 75% = ++++) | 120 (GYIEHFSLW; listed as Homo sapiens) [compound 120] | ++ (20%-49% = ++) | –
++++ (>= 75% = ++++) | 132 (RYPALFPVL; listed as Homo sapiens) [compound 132] | + (<20% = +) | –
++++ (>= 75% = ++++) | 137 (EYLHNCSYF; listed as Homo sapiens) [compound 137] | + (<20% = +) | –
++++ (>= 75% = ++++) | 140 (RYLINSYDF; listed as Homo sapiens) [compound 140] | +++ (50%-69% = +++) | –
– | 277 (FYTFPFQQL; listed as Homo sapiens) [compound 277] | +++ (50%-69% = +++) | –
– | 344 (EYNSDLHQF; listed as Homo sapiens) [compound 344] | + (<20% = +) | –
– | 345 (EYNSDLHQFF; listed as Homo sapiens) [compound 345] | ++ (20%-49% = ++) | –
– | 349 (QYSIISNVF; listed as Homo sapiens) [compound 349] | ++ (20%-49% = ++) | –
– | 350 (KYGNFIDKL; listed as Homo sapiens) [compound 350] | +++ (50%-69% = +++) | –
– | 351 (IFHEVPLKF; listed as Homo sapiens) [compound 351] | ++ (20%-49% = ++) | –
– | 353 (TYGKIDLGF; listed as Homo sapiens) [compound 353] | + (<20% = +) | –
– | 354 (VYNEQIRDLL; listed as Homo sapiens) [compound 354] | + (<20% = +) | –
– | 358 (YYSEVPVKL; listed as Homo sapiens) [compound 358] | ++++ (>= 70 % = ++++) | –
– | 360 (VFSPDGHLF; listed as Homo sapiens) [compound 360] | ++ (20%-49% = ++) | –
– | 363 (SYAELGTTI; listed as Homo sapiens) [compound 363] | + (<20% = +) | –
– | 366 (QYLELAHSL; listed as Homo sapiens) [compound 366] | ++ (20%-49% = ++) | –
– | 367 (LYQDHMQYI; listed as Homo sapiens) [compound 367] | ++ (20%-49% = ++) | –
– | 371 (AYSHLRYVF; listed as Homo sapiens) [compound 371] | ++ (20%-49% = ++) | –
– | 393 (KYIEAIQWI; listed as Homo sapiens) [compound 393] | – | ++ (20%-49% = ++)
– | 399 (SYIDVLPEF; listed as Homo sapiens) [compound 399] | – | ++ (20%-49% = ++)
– | 400 (KYLEKYYNL; listed as Homo sapiens) [compound 400] | – | ++ (20%-49% = ++)
– | 407 (VYGIRLEHF; listed as Homo sapiens) [compound 407] | – | +++ (50%-69% = +++)
– | 414 (MYPYIYHVL; listed as Homo sapiens) [compound 414] | – | ++ (20%-49% = ++)
